Data on 28 compounds can be found in patent publication US7501430B2 (ArQule, Inc., priority 2006, dated 2009).

The target in the first assay is T1, mutant B-RAF (Homo sapiens, UniProt P15056, V600E).
T1 construct: purchased Upstate (Charlottesville, Va.)
T1 sequence (P15056 whole entry V600E): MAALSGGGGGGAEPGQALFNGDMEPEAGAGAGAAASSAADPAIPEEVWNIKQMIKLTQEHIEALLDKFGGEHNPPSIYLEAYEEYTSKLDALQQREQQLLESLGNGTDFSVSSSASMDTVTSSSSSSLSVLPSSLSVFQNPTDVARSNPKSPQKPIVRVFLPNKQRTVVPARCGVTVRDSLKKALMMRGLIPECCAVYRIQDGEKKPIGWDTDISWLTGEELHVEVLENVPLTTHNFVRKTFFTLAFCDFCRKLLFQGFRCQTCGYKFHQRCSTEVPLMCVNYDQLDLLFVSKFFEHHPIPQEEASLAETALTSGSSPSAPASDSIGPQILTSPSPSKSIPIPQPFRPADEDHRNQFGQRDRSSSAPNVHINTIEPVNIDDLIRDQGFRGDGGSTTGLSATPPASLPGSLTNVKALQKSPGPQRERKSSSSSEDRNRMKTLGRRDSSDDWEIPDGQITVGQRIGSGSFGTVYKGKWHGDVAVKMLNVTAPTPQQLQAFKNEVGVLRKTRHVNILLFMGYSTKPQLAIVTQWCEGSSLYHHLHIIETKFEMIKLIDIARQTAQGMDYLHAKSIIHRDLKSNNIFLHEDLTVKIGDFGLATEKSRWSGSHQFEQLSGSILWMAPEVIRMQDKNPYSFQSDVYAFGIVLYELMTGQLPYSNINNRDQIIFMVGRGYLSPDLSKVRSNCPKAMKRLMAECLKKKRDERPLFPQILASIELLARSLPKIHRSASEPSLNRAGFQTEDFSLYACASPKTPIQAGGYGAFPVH
Description: RAF biochemical assay (MEK-1 phosphorylation, anti-phospho MEK1/2 detection).
Conditions: not given
The gist of the method: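 Detection is by ELISA: after a 30 min room-temperature reaction, plate-captured GST-MEK-1 is probed with anti-phospho MEK1/2, then an AP-tagged secondary antibody with fluorescent Attophos read-out.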
With `COc1ccc(C(=O)N2CCC[C@@H](Nc3nccc(-c4c(-c5ccc(F)cc5)nc5occn45)n3)C2)cc1` [Example 27, 4-[6-(4-fluorophenyl)imi-dazo[2,1-b][1,3]oxazol-5-yl]-N-[(3R)-1-(4-methoxy-benzoyl)piperidin-3-yl]pyri-midin-2-amine], the IC50 is 4.89 µM.

The compound `O=C(CCc1ccccc1)N1CCC[C@@H](Nc2nccc(-c3c(-c4ccc(F)cc4)nc4occn34)n2)C1` [Example 38, 4-[6-(4-fluorophenyl)imi-dazo[2,1-b][1,3]oxazol-5-yl]-N-[(3R)-1-(3-phenylpro-panoyl)piperidin-3-yl]pyr-imidin-2-amine] showed an IC50 of 2.9 µM.

Still in this assay, the particulars now being: @ 10 uM; read-out: Mutant B-RAF % inhibition.
`CC(=O)N1CCC(Nc2nccc(-c3c(-c4ccccc4Cl)nc4occn34)n2)CC1` [Example 302, N-(1-acetylpiperidin-4-yl)-4-[6-(2-chlorophenyl)imidazo[2,1-b][1,3]oxazol-5-yl]pyrimidin-2-amine]: the inhibition at 10 µM was 39%.

Turning to `COc1cc(-c2nc3sccn3c2-c2ccnc(N[C@@H]3CCCN(S(=O)(=O)c4ccc(Cl)cc4)C3)n2)ccc1Cl` [Example 100, 4-[6-(4-chloro-3-methoxyphenyl)imidazo[2,1-b][1,3]thiazol-5-yl]-N-{(3R)-1-[(4-chlorophenyl)sulfonyl]piper-idin-3-yl}pyrimidin-2-amine], the inhibition at 10 µM amounted to 40%.

With `CS(=O)(=O)N1CCC(Nc2nccc(-c3c(-c4ccccc4Cl)nc4occn34)n2)CC1` [Example 311, 4-[6-(2-chlorophenyl)imidazo[2,1-b][1,3]oxazol-5-yl]-N-[1-(methylsulfonyl)piperidin-4-yl]pyrimidin-2-amine], the inhibition at 10 µM came to 61%.

On to `O=C(NCCc1ccc(F)cc1)N1CCC[C@@H](Nc2nccc(-c3c(-c4ccc(F)cc4)nc4occn34)n2)C1` [Example 71, (3R)-N-[2-(4-fluorophenyl)ethyl]-3-({4-[6-(4-fluorophenyl)imidazo[2,1-b][1,3]oxazol-5-yl]pyrimidin-2-yl}amino)piperidine-1-carboxamide], for which the inhibition at 10 µM is 16%.

With `CC(=O)N1CCC(Nc2nccc(-c3c(-c4ccc(F)cc4F)nc4occn34)n2)CC1` [Example 310, N-(1-acetylpiperidin-4-yl)-4-[6-(2,4-difluorophenyl)imidazo[2,1-b][1,3]oxazol-5-yl]pyrimidin-2-amine], the inhibition at 10 µM stood at 33%.

With `COc1cccc(-c2nc3sccn3c2-c2ccnc(N[C@@H]3CCCN(C[C@@H]4COC(C)(C)O4)C3)n2)c1` [Example 146, N-((3R)-1-{[(4R)-2,2-dimethyl-1,3-dioxolan-4-yl]methyl}piper-idin-3-yl)-4-[6-(3-methoxy-phenyl)imidazo[2,1-b][1,3]thiazol-5-yl]pyrimidin-2-amine], the inhibition at 10 µM was found to be 43%.

Regarding `Cc1nc(C)c(S(=O)(=O)N2CCC(Nc3nccc(-c4c(-c5ccc(F)cc5)nc5occn45)n3)CC2)s1` [Example 230, N-{1-[(2,4-dimethyl-1,3-thiazol-5-yl)sulfonyl]piperidin-4-yl)-4-[6-(4-fluorophenyl)imidazo[2,1-b][1,3]oxazol-5-yl]pyrimidin-2-amine], the inhibition at 10 µM amounted to 50%.

`CC(=O)NCC(=O)N1CCC(Nc2nccc(-c3c(-c4ccc(F)cc4)nc4occn34)n2)CC1` [Example 211, N-{2-[4-({4-[6-(4-fluorophenyl)imidazo[2,1-b][1,3]oxazol-5-yl]pyrimidin-2-yl}amino)piperidin-1-yl]-2-oxoethyl}acetamide]: the inhibition at 10 µM was determined as 29%.

Take `O=S(=O)(c1ccc(Cl)cc1)N1CC[C@H](Nc2nccc(-c3c(-c4ccc(F)cc4)nc4sccn34)n2)C1` [Example 276, N-{(3S)-1-[(4-chlorophenyl)sulfonyl]pyrrolidin-3-yl}-4-[6-(4-fluorophenyl)imidazo[2,1-b][1,3]thiazol-5-yl]pyrimidin-2-amine]: the inhibition at 10 µM stood at 95%.

`COc1cccc(-c2nc3sccn3c2-c2ccnc(NC3CCN(C(=O)Nc4ccc(N(C)C)cc4)CC3)n2)c1` [Example 216, N-[4-(dimethylamino)phenyl]-4-({4-[6-(3-methoxyphenyl)imidazo[2,1-b][1,3]thiazol-5-yl]pyrimidin-2-yl}amino)piperidine-1-carboxamide]: the inhibition at 10 µM is 58%.

The assay is the same for the next values; noted with them: read-out: Mutant B-RAF IC50.
Regarding `COc1cccc(-c2nc3sccn3c2-c2ccnc(N[C@@H]3CCCN(C(=O)NC4CCCCC4)C3)n2)c1` [Example 328, (3R)-N-cyclohexyl-3-({4-[6-(3-methoxyphenyl)imidazo[2,1-b][1,3]thiazol-5-yl]pyrimidin-2-yl}amino)piperidine-1-carboxamide], the IC50 is 4 µM.

In the case of `O=C(NCc1ccccc1)N1CCC(Nc2nccc(-c3c(-c4ccc(F)cc4)nc4occn34)n2)CC1` [Example 170, N-benzyl-4-({4-[6-(4-fluorophenyl)imidazo[2,1-b][1,3]oxazol-5-yl]pyrimidin-2-yl}amino)piperidine-1-carboxamide], the IC50 was 0.189 µM.

As to `O=S(=O)(c1ccc(Cl)cc1)N1CCC[C@@H](Nc2nccc(-c3c(-c4ccc(O)cc4)nc4sccn34)n2)C1` [Example 110, 4-{5-[2-({(3R)-1-[(4-chlorophenyl)sulfonyl]piperidin-3-yl}amino)pyrimidin-4-yl]imidazo[2,1-b][1,3]thiazol-6-yl}phenol], the IC50 was over 5 µM.

Turning to `O=S(=O)(c1nnc[nH]1)N1CCC[C@@H](Nc2nccc(-c3c(-c4cccc(O)c4)nc4sccn34)n2)C1` [Example 381, 3-[5-(2-{[(3R)-1-(4H-1,2,4-tri-azol-3-ylsulfonyl)piperidin-3-yl]amino}pyrimidin-4-yl)imidazo[2,1-b][1,3]thiazol-6-yl]phenol], the IC50 amounted to 0.015 µM.

Take `O=S(=O)(Cc1ccccc1)N1CCC[C@@H](Nc2nccc(-c3c(-c4cccc(O)c4)nc4sccn34)n2)C1` [Example 369, 3-[5-(2-{[(3R)-1-(benzylsulfonyl)piperidin-3-yl]amino}pyrimidin-4-yl)imidazo[2,1-b][1,3]thiazol-6-yl]phenol]: the IC50 is over 3 µM.

Regarding `O=S(=O)(c1ccc(F)cc1)N1CCC(Nc2nccc(-c3c(-c4cccc(O)c4)nc4sccn34)n2)CC1` [Example 266, 3-{5-[2-({1-[(4-fluorophenyl)sulfonyl]piperidin-4-yl}amino)pyrimidin-4-yl]imidazo[2,1-b][1,3]thiazol-6-yl}phenol], the half-maximal inhibitory concentration (IC50) came out at 0.029 µM.

As for `COc1cccc(S(=O)(=O)N2CCC(Nc3nccc(-c4c(-c5ccc(F)cc5)nc5occn45)n3)CC2)c1` [Example 231, 4-[6-(4-fluorophenyl)imidazo[2,1-b][1,3]oxazol-5-yl]-N-{1-[(3-methoxyphenyl)sulfonyl]piperidin-4-yl}pyrimidin-2-amine], the IC50 is 0.408 µM.

On to `NS(=O)(=O)Oc1cccc(-c2nc3sccn3c2-c2ccnc(N[C@@H]3CCCN(S(=O)(=O)c4ccc(Cl)cc4)C3)n2)c1` [Example 377, 3-{5-[2-({(3R)-1-{(4-chlorophenyl)sulfonyl]piperidin-3-yl}amino)pyrimidin-4-yl]imidazo[2,1-b][1,3]thiazol-6-yl}phenyl sulfamate], for which the IC50 worked out at 0.085 µM.

`Nc1cccc(-c2nc3sccn3c2-c2ccnc(N[C@@H]3CCCN(S(=O)(=O)c4ccc(Cl)cc4)C3)n2)c1` [Example 122, 4-[6-(3-aminophenyl)imidazo[2,1-b][1,3]thiazol-5-yl]-N-{(3R)-1-[(4-chlorophenyl)sulfonyl]piper-idin-3-yl}pyrimidin-2-amine]: the half-inhibitory concentration (IC50) is 0.429 µM.

Take `C/C(=N\O)c1cccc(-c2nc3sccn3c2-c2ccnc(N[C@@H]3CCCN(S(=O)(=O)c4ccc(Cl)cc4)C3)n2)c1` [Example 389, (1E)-1-(3-{5-[2-({(3R)-1-[(4-chlorophenyl)sulfonyl]piperidin-3-yl}amino)pyrimidin-4-yl]imidazo[2,1-b][1,3]thiazol-6-yl}phenyl)ethanone oxime]: the IC50 is 0.034 µM.

On to `COc1cc(-c2nc3sccn3c2-c2ccnc(NC3CCN(S(=O)(=O)C4CC4)CC3)n2)ccc1F` [Example 349, N-[1-(cyclopropylsulfonyl)piperidin-4-yl]-4-[6-(4-fluoro-3-methoxyphenyl)imidazo[2,1-b][1,3]thiazol-5-yl]pyrimidin-2-amine], for which the IC50 is 2.6 µM.

For `COc1cccc(-c2nc3sccn3c2-c2ccnc(N[C@@H]3CCCN(S(=O)(=O)c4ccc(Cl)cc4)C3)n2)c1` [Example 95, N-{(3R)-1-[(4-chlorophenyl)sulfonyl]piperidin-3-yl}-4-[6-(3-methoxyphenyl)imidazo[2,1-b][1,3]thiazol-5-yl]pyrimidin-2-amine], the half-inhibitory concentration (IC50) came to 0.147 µM.

As for `Nc1ccccc1-c1nc2sccn2c1-c1ccnc(N[C@@H]2CCCN(S(=O)(=O)c3ccc(Cl)cc3)C2)n1` [Example 132, 4-[6-(2-aminophenyl)imidazo[2,1-b][1,3]thiazol-5-yl]-N-{(3R)-1-[(4-chlorophenyl)sulfonyl]piper-idin-3-yl}pyrimidin-2-amine], the IC50 is 0.444 µM.

In the case of `CCOc1ccc(NC(=O)N2CCC[C@@H](Nc3nccc(-c4c(-c5cccc(OC)c5)nc5sccn45)n3)C2)cc1` [Example 329, (3R)-N-(4-ethoxyphenyl)-3-({4-[6-(3-methoxyphenyl)imidazo[2,1-b][1,3]thiazol-5-yl]pyri-midin-2-yl}amino)piperidine-1-carboxamide], the half-inhibitory concentration (IC50) amounted to 4 µM.

`O=S(=O)(c1ccc(Cl)cc1)N1CCC[C@@H](Nc2nccc(-c3c(-c4ccc(F)c(O)c4)nc4sccn34)n2)C1` [Example 353, 5-{5-[2-({(3R)-1-[(4-chlorophenyl)suifonyl]piperidin-3-yl}amino)pyrimidin-4-yl]imidazo[2,1-b][1,3]thiazol-6-yl}-2-fluorophenol]: the IC50 is 0.003 µM.

Staying with this assay, now noted: read-out: Mutant B-RAF IC50 (uM) or % inhibition.
On to `O=S(=O)(c1ccccc1)N1CCC[C@@H](Nc2nccc(-c3c(-c4cccc(O)c4)nc4occn34)n2)C1` [Example 398, 3-[5-(2-{[(3R)-1-(phenylsulfonyl)piperidin-3-yl]amino}pyrimidin-4-yl)imidazo[2,1-b][1,3]oxazol-6-yl]phenol], for which the IC50 came out at 0.042 µM.

A word on the IC50: it is the concentration needed to halve the response being measured. One may read the inhibition as the change of the read-out against control, counted positive when it falls.
